pKi: −log10 of the molar value.
Biological target: T1, purified catalytic domain of recombinant human TACE (rhTACEc) (Homo sapiens, UniProt P78536, N452Q/S266A)
T1 construct: Residue 215 to 477 with two mutation (S266A and N452Q) and a 6×His tail; 6xHis (C); made in house; host or cells: baculovirus/Hi5 insect cells
Test: TACE kinetic assay: cleavage of internally quenched peptide substrate SPDL-3, fluorescence
Type: biochemical
Conditions: TACE inhibitory activity, class symbols; read-out: Ki

T1 sequence (P78536 215-477 S266A/N452Q): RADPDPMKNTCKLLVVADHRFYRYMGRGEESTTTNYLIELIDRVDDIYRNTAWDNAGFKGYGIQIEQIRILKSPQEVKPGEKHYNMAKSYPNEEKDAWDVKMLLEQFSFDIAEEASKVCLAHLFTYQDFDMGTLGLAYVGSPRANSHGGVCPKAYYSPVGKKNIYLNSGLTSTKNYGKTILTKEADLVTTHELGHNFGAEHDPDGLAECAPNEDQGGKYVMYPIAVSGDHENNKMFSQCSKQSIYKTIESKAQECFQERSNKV

SMILES	pKi
C[C@@H](NC(=O)[C@H](O)[C@@H](O)C(=O)N1CCC[C@@H]1c1cccc(Cl)c1)c1ccc(-n2cccn2)cc1 [Compound 944]	> 7.70
C[C@@H](NC(=O)[C@H](O)[C@@H](O)C(=O)N1CCCC1(C)c1csc(N)n1)c1ccc(-n2cccn2)cc1 (stereo partly shown) [Compound 2243]	> 7.70
Cn1ccnc1[C@H](O)[C@@H](O)C(=O)NCc1ccc(-n2cccn2)cc1 [Compound 2397]	< 6.00
C[C@@H](NC(=O)[C@H](O)[C@@H](O)C(=O)N1Cc2cnc(N)nc2C1)c1ccc(-n2cccn2)cc1 [Compound 2043]	> 7.70

— US7652020B2, “Compounds for the treatment of inflammatory disorders” (Schering Corporation, priority 2004, dated 2010)
